Laboratory results taken from publication PMC8619434 (Viruses, 2021).
pIC50: −log10 of the molar value. In brackets after ≈: the same amount, converted by molar mass. Entries after “also recorded” stand apart in the source; their conditions may differ. Structures can show the parent of a compound that is named as a salt. Where two headings read alike, the source gives them in different places.

How the values were obtained:
[1] = test system: SARS-CoV-2 spike protein pseudovirus; assay: organism not typed; type: cell-based
VSV-G pseudovirus = assay: microbe, parasite or virus in culture; type: cell-based, vesicular stomatitis virus; conditions: for activity at 10 µM: Pseudovirus, 293T/ACE2, read-out: % Infectivity of VSV-G pv
293T-ACE2 cells = conditions: for % viability (Table S3): 10 µM
SARS-CoV-1-S pseudovirus = type: cell-based
MERS-CoV-S pseudovirus = type: cell-based
in vitro = conditions: human
[2] = test system: SARS-CoV-2 spike protein pseudovirus; type: cell-based
[3] = test system: SARS-CoV-2 spike protein pseudovirus; type: cell-based; remark: listed apart in the source
[4] = test system: SARS-CoV-2 spike protein pseudovirus; type: cell-based; remark: listed apart in the source
[5] = predictions for the uncharged form; ref https://go.drugbank.com; cited from earlier work
[6] = values for the salts; ref chemical supplier datasheets; cited from earlier work
[7] = test system: SARS-CoV-2 spike protein pseudovirus; type: cell-based; remark: listed apart in the source
[8] = test system: SARS-CoV-2 spike protein pseudovirus; type: cell-based; remark: listed apart in the source
[9] = test system: SARS-CoV-2 spike protein pseudovirus; conditions: Caco-2
[10] = within current drug treatment regimes; ref PubChem database; read-out: peak serum concentration (Cmax); cited from earlier work
[11] = 293T/ACE2, read-out: IC50 of SARS-CoV-2-S pseudovirus infectivity
[12] = 293T/ACE2, 48 h, read-out: % Infectivity of SARS-2-Spike pv
[13] = 10 µM; read-out: % infectivity (Table S3, kite-shaped molecules in order of inhibition)

| Molecule | pIC50 [1, 11] | activity at 10 µM [1, 12] [%] | activity at 10 µM (VSV-G pseudovirus) [%] | inhibition of SARS-CoV-1-S pseudovirus infection (SARS-CoV-1-S pseudovirus) | inhibition of MERS-CoV-S pseudovirus infection (MERS-CoV-S pseudovirus) | viability (in vitro; % Viability of SARS-2-Spike pv) [%] | also measured |
| --- | --- | --- | --- | --- | --- | --- | --- |
| CC[C@H]1OC(=O)[C@H](C)[C@@H](O[C@H]2C[C@@](C)(OC)[C@@H](O)[C@H](C)O2)[C@H](C)[C@@H](O[C@@H]2O[C@H](C)C[C@H](N(C)C)[C@H]2O)[C@](C)(O)C[C@@H](C)CN(C)[C@H](C)[C@@H](O)[C@]1(C)O [azithromycin] | 6.11 |  |  |  |  |  | % Infectivity of SARS-2-Spike pv [1]: 3%; % Infectivity of VSV-G pv (VSV-G pseudovirus): 93%; % Viability of SARS-2-Spike pv (293T-ACE2 cells; human): 100% |
| CCOC(=O)C1OC1C(=O)NC(CC(C)C)C(=O)NCCC(C)C (stereo not shown) [E64d] |  | 9 | 105 | inhibited | inhibited | 95 |  |
| CCN(CC)CCCC(C)Nc1ccnc2cc(Cl)ccc12 (stereo not shown) [chloroquine diphosphate] | 6.49 | 1 | 83 | inhibited | inhibited |  | inhibition of SARS-CoV-2 pseudovirus infection of A549-ACE2 cells [2]: failed to inhibit; viability (in vitro): 123% |
| C[C@@H]1CCO[C@H]2Cn3cc(C(=O)NCc4ccc(F)cc4F)c(=O)c(O)c3C(=O)N12 [S/GSK1349572] |  |  |  |  |  |  | activity [1, 13]: 16.2%; % viability (Table S3) (293T-ACE2 cells): 94% |
| CSc1ccc2c(c1)N(CCC1CCCCN1C)c1ccccc1S2 (stereo not shown) [thioridazine HCl] |  | 6 | 69 | significant inhibition | non-significant inhibition | 71 | % infectivity in attachment assay [3]: 28%; % infectivity of SARS-CoV-2 pseudovirus in Calu3 cells [4]: 22%; water solubility a [5]: 2.1 µM; water solubility b [6]: 122000 µM |
| Cc1c(-c2ccc(O)cc2)n(Cc2ccc(OCCN3CCCCCC3)cc2)c2ccc(O)cc12.Cl [bazedoxifene Hcl] |  |  |  |  |  |  | % Infectivity of SARS-2-Spike pv [1]: 3%; % Infectivity of VSV-G pv (VSV-G pseudovirus): 13%; % Viability of SARS-2-Spike pv (293T-ACE2 cells): 88% |
| CCOC(=O)C1=C(COCCN)NC(C)=C(C(=O)OC)C1c1ccccc1Cl (stereo not shown) [amlodipine besylate] |  |  |  |  |  |  | % Infectivity of SARS-2-Spike pv [1]: 19%; % Infectivity of VSV-G pv (VSV-G pseudovirus): 100%; % Viability of SARS-2-Spike pv (293T-ACE2 cells; human): 116% |
| COc1cc2c(Nc3ccc(Br)cc3F)ncnc2cc1OCC1CCN(C)CC1 [vandetanib] | 5.19 | 1 | 125 |  |  |  | toxicity in Calu3 cells (word printed in Figure 7) (Calu3 cells): toxic; viability (in vitro): 89% |
| CC(C)OC(=O)OCOP(=O)(CO[C@H](C)Cn1cnc2c(N)ncnc21)OCOC(=O)OC(C)C.O=C(O)/C=C/C(=O)O [tenofovir, tenofovir disoproxil fumarate] |  |  |  | completely inhibited | completely inhibited |  | % Infectivity of SARS-2-Spike pv [1]: completely inhibited; % Infectivity of VSV-G pv (VSV-G pseudovirus): potently inhibited; also recorded: completely inhibited; % infectivity, drug added at 1 hpi (post-entry) [7]: complete inhibition; % infectivity of SARS-CoV-2 pseudovirus in Calu3 cells [4]: complete inhibition; inhibition of SARS-CoV-2 pseudovirus infection of Vero cells [8]: complete inhibition; inhibition of SARS-CoV-2 pseudovirus infection of A549-ACE2 cells [2]: complete inhibition; inhibition of SARS-CoV-2 pseudovirus infection of Caco2 cells [9]: complete inhibition |
| CN1CCC(=C2c3ccccc3CCc3sccc32)CC1 [pizotifen malate] | 5.46 | 7 | 77 |  |  | 106 | % infectivity of SARS-CoV-2 pseudovirus in Calu3 cells [4]: 13%; water solubility a [5]: 16 µM |
| CN[C@H]1CC[C@@H](c2ccc(Cl)c(Cl)c2)c2ccccc21 [sertraline HCl] |  | 8 | 71 |  |  | 95 | toxicity in Calu3 cells (word printed in Figure 7) (Calu3 cells): toxic |
| CN(C)C(=O)COC(=O)Cc1ccc(OC(=O)c2ccc(NC(=N)N)cc2)cc1 [camostat mesylate] |  | 120 |  | did not inhibit | did not inhibit |  | % Infectivity of VSV-G pv (VSV-G pseudovirus): did not inhibit; % infectivity of SARS-CoV-2 pseudovirus in Calu3 cells [4]: inhibited; inhibition of SARS-CoV-2 pseudovirus infection of A549-ACE2 cells [2]: failed to inhibit; inhibition of SARS-CoV-2 pseudovirus infection of Caco2 cells [9]: inhibited |
| Cc1nc2c([nH]1)-c1ccccc1N(C(=O)c1ccc(NC(=O)c3ccccc3-c3ccccc3)cc1)CC2.Cl [conivaptan hcl] |  |  |  |  |  |  | activity [1, 13]: 52%; % viability (Table S3) (293T-ACE2 cells): 102% |
| CN1CCN(CCCN2c3ccccc3Sc3ccc(C(F)(F)F)cc32)CC1 [trifluoperazine 2HCl] | 5.48 | 5 | 80 | significant inhibition | non-significant inhibition | 83 |  |
| CN1CC2c3ccccc3Oc3ccc(Cl)cc3C2C1 (stereo not shown) [asenapine] |  | 4 | 71 |  |  | 92 | combination effect with hydroxychloroquine on SARS-CoV-2 pseudovirus infectivity [1]: additive effects; water solubility a [5]: 78 µM (≈ 22.3 µg/mL); water solubility b [6]: 9000 µM |
| Cc1ccc(NC(=O)c2ccc(CN3CCN(C)CC3)cc2)cc1Nc1nccc(-c2cccnc2)n1 [imatinib] |  |  |  |  |  |  | % Infectivity of SARS-2-Spike pv [1]: 81%; % Viability of SARS-2-Spike pv (293T-ACE2 cells; human): 103% |
| CN1CCN(c2nc(C3=C(c4c[nH]c5ccccc45)C(=O)NC3=O)c3ccccc3n2)CC1 [sotrastaurin] | 5.16 | 8 | 76 | significant inhibition | non-significant inhibition | 89 |  |
| CN(C)CCC=C1c2ccccc2CCc2ccccc21 [amitriptyline HCl] | 5.30 | 9 | 80 |  |  | 112 | water solubility a [5]: 14 µM; water solubility b [6]: 99000 µM |
| Cc1cncc(CN2CCC(=C3c4ccc(Cl)cc4CCc4cccnc43)CC2)c1.O=C(O)/C=C/C(=O)O [Rupatadine Fumarate] |  |  |  |  |  |  | activity [1, 13]: 38%; % viability (Table S3) (293T-ACE2 cells): 74% |
| OCCOCCN1CCN(C2=Nc3ccccc3Sc3ccccc32)CC1 [quetiapine] |  |  |  |  |  |  | activity ([1]; read-out: % infectivity (Table S3, kite-shaped molecules in order of inhibition); 10 µM): 113%; % viability (Table S3) (293T-ACE2 cells; human): 101% |
| heparin sodium |  |  |  |  |  |  | % Infectivity of SARS-2-Spike pv [1]: 88%; % Viability of SARS-2-Spike pv (293T-ACE2 cells): 98% |
| CCOC(=O)C1=C(COCCN)NC(C)=C(C(=O)OC)C1c1ccccc1Cl (stereo not shown) [amlodipine] | 5.25 | 12 |  | significant inhibition | non-significant inhibition | 115 | % Infectivity of VSV-G pv (VSV-G pseudovirus): 78%; toxicity in Calu3 cells (word printed in Figure 7) (Calu3 cells): toxic |
| CN(C)CCCN1c2ccccc2Sc2ccc(Cl)cc21 [chlorpromazine HCl] | 5.42 | 6 | 58 |  |  | 65 | % infectivity, drug added at 1 hpi (post-entry) [7]: 35%; water solubility a [5]: 12 µM; water solubility b [6]: 141000 µM |
| CNCCCC12CCC(c3ccccc31)c1ccccc12 [maprotiline HCl] |  | 9 | 89 |  |  | 99 | water solubility a [5]: 150 µM; water solubility b [6]: 159000 µM |
| Cc1ccc(NC(=O)c2ccc(CN3CCN(C)CC3)cc2)cc1Nc1nccc(-c2cccnc2)n1 [imatinib mesylate, imatinib] |  |  |  |  |  |  | % Infectivity of SARS-2-Spike pv [1]: 1%; % Viability of SARS-2-Spike pv (293T-ACE2 cells; human): 22% |
| CC(CN(C)C)CN1c2ccccc2CCc2ccccc21 (stereo not shown) [trimipramine maleate] | 5.27 | 14 | 95 |  |  | 92 | % infectivity of SARS-CoV-2 pseudovirus in Calu3 cells [4]: 8%; water solubility a [5]: 88 µM; water solubility b [6]: 5000 µM |
| CCN(CCO)CCCC(C)Nc1ccnc2cc(Cl)ccc12 (stereo not shown) [hydroxychloroquine sulfate] | 6.18 | 2 | 103 | inhibited | inhibited | 90 | pIC50 ([1]; read-out: IC50 of SARS-CoV-2-S pseudovirus infectivity): 6.15; % infectivity in attachment assay [3]: did not inhibit attachment; inhibition of SARS-CoV-2 pseudovirus infection of A549-ACE2 cells [2]: failed to inhibit; water solubility a [5]: 60 µM; water solubility b [6]: 200000 µM |
| CC(C)COc1ccc(CNC(=O)N(Cc2ccc(F)cc2)C2CCN(C)CC2)cc1 [pimavanserin] |  | 3 | 72 |  |  | 70 |  |
| CN(C)CC/C=C1/c2ccccc2Sc2ccc(Cl)cc21 [chlorprothixene] | 5.71 | 5 | 48 |  |  | 97 | % infectivity, drug added at 1 hpi (post-entry) [7]: 45%; % infectivity in attachment assay [3]: did not inhibit virus attachment; % infectivity of SARS-CoV-2 pseudovirus in Calu3 cells [4]: 44%; Cmax [10]: 1400 nM |
